# Measured values published in PubChem BioAssay AID2037 (NMMLSC, 2009).
# Biological target: Cell division control protein 42 homolog (Homo sapiens) (UniProt P60953)
# Assay: wild-type Cdc42 nucleotide-binding inhibitors, SAR follow-up, biochemical, bead-based multiplex flow cytometry, oxadiazole series (AID 2037)
# Details: GST-Cdc42 beads, Bodipy-FL-GTP binding, Ki calculated from EC50
# Chain of Cell division control protein 42 homolog (Homo sapiens) (P60953 whole entry, looked up): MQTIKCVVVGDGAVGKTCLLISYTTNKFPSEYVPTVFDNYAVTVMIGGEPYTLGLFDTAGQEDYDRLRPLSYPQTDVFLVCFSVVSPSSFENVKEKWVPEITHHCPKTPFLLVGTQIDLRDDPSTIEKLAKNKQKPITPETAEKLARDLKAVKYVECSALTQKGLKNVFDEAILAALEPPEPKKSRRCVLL
row,Ki [nM],Structure (SMILES)
1,120,COc1ccc(-c2noc(CCC(=O)N3CCN(c4ccc(C)cc4)CC3)n2)cc1
2,490,Cc1ccc(C)c(N2CCN(C(=O)CCc3nc(-c4ccccc4Br)no3)CC2)c1
3,580,COc1ccc(-c2noc(CCC(=O)N3CCN(c4cc(C)ccc4C)CC3)n2)cc1
4,80,Cc1ccc(C)c(N2CCN(C(=O)CCc3nc(-c4ccc(F)cc4)no3)CC2)c1
5,480,COc1ccc(-c2coc(CCC(=O)N3CCN(c4cc(C)ccc4C)CC3)n2)cc1
6,680,Cc1ccc(C)c(N2CCN(C(=O)CCc3nc(-c4ccc(C(F)(F)F)cc4)no3)CC2)c1
7,1050,Cc1ccc(C)c(N2CCN(C(=O)CCc3nc(-c4ccccc4C(F)(F)F)no3)CC2)c1
8,420,COc1ccc(-c2noc(CCC(=O)N3CCN(c4ccccc4C(F)(F)F)CC3)n2)cc1
9,920,Cc1ccc(-c2noc(CCC(=O)N3CCN(c4cc(C)ccc4C)CC3)n2)cc1
10,850,Cc1ccc(C)c(N2CCN(C(=O)CCc3nc(-c4ccccc4)no3)CC2)c1
11,1310,COc1ccc(-c2noc(CCCC(=O)N3CCN(c4cc(C)ccc4C)CC3)n2)cc1
12,340,Cc1ccc(C)c(N2CCN(C(=O)CCc3nc(-c4ccc(Br)cc4)no3)CC2)c1
13,250,Cc1ccc(C)c(N2CCN(C(=O)CCc3nc(-c4ccc(N(C)C)cc4)no3)CC2)c1
14,170,COc1ccc(-c2noc(CCC(=O)N3CCN(c4ccccc4Cl)CC3)n2)cc1
15,100,COc1ccc(-c2noc(CCC(=O)N3CCN(c4ccc(OC)cc4)CC3)n2)cc1
16,2550,COc1ccc(-c2noc(CCC(=O)N3CCN(c4cccc(OC)c4)CC3)n2)cc1
17,490,COc1ccc(-c2noc(CCC(=O)N3CCN(c4ccccc4Br)CC3)n2)cc1
18,410,COc1ccc(-c2noc(CCC(=O)N3CCN(c4cccc(C(F)(F)F)c4)CC3)n2)cc1
19,330,COc1ccccc1-c1noc(CCC(=O)N2CCN(c3cc(C)ccc3C)CC2)n1
20,360,Cc1ccc(C)c(N2CCN(C(=O)CCc3nc(-c4ccc(Cl)cc4)no3)CC2)c1
21,460,Cc1ccc(C)c(N2CCN(C(=O)CCc3nc(-c4cccc(Cl)c4)no3)CC2)c1
22,360,COc1ccc(-c2noc(CCC(=O)N3CCN(c4ccccc4C)CC3)n2)cc1
23,300,COc1ccc(-c2noc(CCC(=O)N3CCC(c4cc(C)ccc4C)CC3)n2)cc1
24,140,COc1ccc(-c2noc(CCC(=O)N3CCN(c4ccccc4F)CC3)n2)cc1
25,590,COc1cccc(-c2noc(CCC(=O)N3CCN(c4cc(C)ccc4C)CC3)n2)c1
26,780,COc1ccc(-c2cccc(CCC(=O)N3CCN(c4cc(C)ccc4C)CC3)c2)cc1
27,450,Cc1ccc(C)c(N2CCN(C(=O)CCc3nc(-c4cccc(Br)c4)no3)CC2)c1
28,220,Cc1cccc(-c2noc(CCC(=O)N3CCN(c4cc(C)ccc4C)CC3)n2)c1
29,240,COc1ccc(-c2noc(CCC(=O)N3CCN(c4cccc(C)c4C)CC3)n2)cc1
